Source: patent publication US20190343908A1, “Therapeutic Combination for the Treatment of Cancer” (Nerium Biotechnology Inc., priority 2011, published 2019)

Tests used:
[1] = tested on: PC3 (human prostate cancer); test: Sulforhodamine B viability assay, PC3; assay type: cell-based
Source text: (§1) Three different viability assays were chosen to complement each other and yielded results dependent on concentration and cell line: the Methyl Tetrazolium dye assay, the Sulforhodamine B fluorescent dye assay, and the Crystal Violet dye assay.
(§2) The Sulforhodamine B and Crystal Violet assays provide information about protein and were used to complement the Methyl-Tetrazolium dye assay. […] It is used for the quantification of cellular proteins of cultured cells. The assay using Crystal Violet, a dye that binds electrostatically to proteins and stains DNA, provides a reliable, simple assay for measuring viability of cells.
(§3) The Methyl Tetrazolium, Sulforhodamine B, and Crystal Violet assays were used to assess cell viabilities. The incubation times were 24 hours, 48 hours, and 72 hours. The Nerium oleander extract Anvirzel™ (a hot water extract of oleander obtained from Salud Integral, Honduras) was tested in concentrations ranging from 0.01 ng/mL to 10 ng/mL.
(§4) Cells were detached by trypsinization (Trypsin-0.25% EDTA, Invitrogen, 25200-072) during the logarithmic phase of culture growth and plated in 96-well plates (18.000 cells/well) (Corning, Costar 359) in a final volume of 200 μl of medium per well. […] The absorbance was measured after 24 hours, 48 hours, and 72 hours of incubation.
(§5) For the Sulforhodamine B assay, 96-well plates were fixed by 10% trichloroacetic acid (Fluka, 91228) and were incubated at 4° C. for 1 hour. Afterwards, plates were rinsed with water and cells were stained with 0.4% Sulforhodamine B (Sigma, 341738), dissolved in 1% acetic acid (Carlo Ebra, 401422) for 15 minutes at room temperature (RT). The unbound stain was washed twice with 1% acetic acid. Finally, 10 mM Tris Buffer pH 10.5 (Sigma, T6791) was added to dissolve the dye.
(§6) The optical density of each plate was measured on a μQuant spectrophotometer and the data were analyzed with Gen5 software (μQuant Biomolecular Spectrophotometer MQX200 and Gen5™ Microplate Data Collection & Analysis software, BioTek® Instruments. Inc, April 2008). Absorbance was measured at 570 nm for all assays and a second wavelength was measured in order to subtract noise. For the Methyl-Tetrazolium assay this second wavelength was 630 nm and for the Sulforhodamine B and Crystal Violet assays it was 690 nm.

[2] = tested on: MCF-7 (human breast cancer); test: Sulforhodamine B viability assay, MCF-7; assay type: cell-based; design: key: absorbance (optical density) at 570 nm, second wavelength subtracted
Source text: as §1, §2, §3, §4, §5, §6

N.N.[Cl][Pt][Cl] [cisplatin]
SRB Average ([1]; PC3 Run 1, 24 h, 0.1 μg/ml CDDP): 2.058 | SRB Average ([1]; PC3 Run 1, 24 h, 1 μg/ml CDDP): 1.352 | SRB Average ([1]; PC3 Run 1, 24 h, 10 μg/ml CDDP): 1.604 | SRB Average ([1]; PC3 Run 1, 24 h, 100 μg/ml CDDP): 1.605 | SRB Average ([1]; PC3 Run 1, 48 h, 0.1 μg/ml CDDP): 2.343 | SRB Average ([1]; PC3 Run 1, 48 h, 1 μg/ml CDDP): 1.677 | SRB Average ([1]; PC3 Run 1, 48 h, 10 μg/ml CDDP): 2.159 | SRB Average ([1]; PC3 Run 1, 48 h, 100 μg/ml CDDP): 1.851 | SRB Average ([1]; PC3 Run 1, 72 h, 0.1 μg/ml CDDP): 2.256 | SRB Average ([1]; PC3 Run 1, 72 h, 1 μg/ml CDDP): 2.227 | SRB Average ([1]; PC3 Run 1, 72 h, 10 μg/ml CDDP): 2.554 | SRB Average ([1]; PC3 Run 1, 72 h, 100 μg/ml CDDP): 1.543 | SRB Average ([1]; PC3 Run 2, 24 h, 0.1 μg/ml CDDP): 1.578 | SRB Average ([1]; PC3 Run 2, 24 h, 1 μg/ml CDDP): 1.469 | SRB Average ([1]; PC3 Run 2, 24 h, 10 μg/ml CDDP): 1.403 | SRB Average ([1]; PC3 Run 2, 24 h, 100 μg/ml CDDP): 1.5 | SRB Average ([1]; PC3 Run 2, 48 h, 0.1 μg/ml CDDP): 2.279 | SRB Average ([1]; PC3 Run 2, 48 h, 1 μg/ml CDDP): 2.066 | SRB Average ([1]; PC3 Run 2, 48 h, 10 μg/ml CDDP): 2.144 | SRB Average ([1]; PC3 Run 2, 48 h, 100 μg/ml CDDP): 1.77 | SRB Average ([1]; PC3 Run 2, 72 h, 0.1 μg/ml CDDP): 2.069 | SRB Average ([1]; PC3 Run 2, 72 h, 1 μg/ml CDDP): 1.64 | SRB Average ([1]; PC3 Run 2, 72 h, 10 μg/ml CDDP): 1.63 | SRB Average ([1]; PC3 Run 2, 72 h, 100 μg/ml CDDP): 1.271 | SRB Average ([1]; PC3 Run 3, 24 h, 0.1 μg/ml CDDP): 1.595 | SRB Average ([1]; PC3 Run 3, 24 h, 1 μg/ml CDDP): 1.326 | SRB Average ([1]; PC3 Run 3, 24 h, 10 μg/ml CDDP): 1.24 | SRB Average ([1]; PC3 Run 3, 24 h, 100 μg/ml CDDP): 1.125 | SRB Average ([1]; PC3 Run 3, 48 h, 0.1 μg/ml CDDP): 1.52 | SRB Average ([1]; PC3 Run 3, 48 h, 1 μg/ml CDDP): 1.1 | SRB Average ([1]; PC3 Run 3, 48 h, 10 μg/ml CDDP): 1.474 | SRB Average ([1]; PC3 Run 3, 48 h, 100 μg/ml CDDP): 1.153 | SRB Average ([1]; PC3 Run 3, 72 h, 0.1 μg/ml CDDP): 1.643 | SRB Average ([1]; PC3 Run 3, 72 h, 1 μg/ml CDDP): 1.069 | SRB Average ([1]; PC3 Run 3, 72 h, 10 μg/ml CDDP): 1.122 | SRB Average ([1]; PC3 Run 3, 72 h, 100 μg/ml CDDP): 0.839 | SRB Average ([2]; MCF-7, Run 2, 24 h, 0.1 μg/ml CDDP): 1.754 | SRB Average ([2]; MCF-7, Run 2, 24 h, 1 μg/ml CDDP): 1.225 | SRB Average ([2]; MCF-7, Run 2, 24 h, 10 μg/ml CDDP): 1.717 | SRB Average ([2]; MCF-7, Run 2, 24 h, 100 μg/ml CDDP): 1.056 | SRB Average ([2]; MCF-7, Run 2, 48 h, 0.1 μg/ml CDDP): 2.037 | SRB Average ([2]; MCF-7, Run 2, 48 h, 1 μg/ml CDDP): 0.874 | SRB Average ([2]; MCF-7, Run 2, 48 h, 10 μg/ml CDDP): 0.88 | SRB Average ([2]; MCF-7, Run 2, 48 h, 100 μg/ml CDDP): 0.985 | SRB Average ([2]; MCF-7, Run 2, 72 h, 0.1 μg/ml CDDP): 2.289 | SRB Average ([2]; MCF-7, Run 2, 72 h, 1 μg/ml CDDP): 1.409 | SRB Average ([2]; MCF-7, Run 2, 72 h, 10 μg/ml CDDP): 1.179 | SRB Average ([2]; MCF-7, Run 2, 72 h, 100 μg/ml CDDP): 0.897 | SRB Average ([2]; MCF-7, Run 3, 24 h, 0.1 μg/ml CDDP): 2.843 | SRB Average ([2]; MCF-7, Run 3, 24 h, 1 μg/ml CDDP): 1.805 | SRB Average ([2]; MCF-7, Run 3, 24 h, 10 μg/ml CDDP): 2.092 | SRB Average ([2]; MCF-7, Run 3, 24 h, 100 μg/ml CDDP): 1.077 | SRB Average ([2]; MCF-7, Run 3, 48 h, 0.1 μg/ml CDDP): 2.371 | SRB Average ([2]; MCF-7, Run 3, 48 h, 1 μg/ml CDDP): 1.787 | SRB Average ([2]; MCF-7, Run 3, 48 h, 10 μg/ml CDDP): 1.338 | SRB Average ([2]; MCF-7, Run 3, 48 h, 100 μg/ml CDDP): 1.673 | SRB Average ([2]; MCF-7, Run 3, 72 h, 0.1 μg/ml CDDP): 2.522 | SRB Average ([2]; MCF-7, Run 3, 72 h, 1 μg/ml CDDP): 1.885 | SRB Average ([2]; MCF-7, Run 3, 72 h, 10 μg/ml CDDP): 1.622 | SRB Average ([2]; MCF-7, Run 3, 72 h, 100 μg/ml CDDP): 1.181 | SRB Average ([2]; MCF-7 Run 1, 24 h, 0.1 μg/ml CDDP): 2.066 | SRB Average ([2]; MCF-7 Run 1, 24 h, 1 μg/ml CDDP): 1.404 | SRB Average ([2]; MCF-7 Run 1, 24 h, 10 μg/ml CDDP): 1.825 | SRB Average ([2]; MCF-7 Run 1, 24 h, 100 μg/ml CDDP): 1.579 | SRB Average ([2]; MCF-7 Run 1, 48 h, 0.1 μg/ml CDDP): 2.67 | SRB Average ([2]; MCF-7 Run 1, 48 h, 1 μg/ml CDDP): 1.873 | SRB Average ([2]; MCF-7 Run 1, 48 h, 10 μg/ml CDDP): 1.731 | SRB Average ([2]; MCF-7 Run 1, 48 h, 100 μg/ml CDDP): 1.452 | SRB Average ([2]; MCF-7 Run 1, 72 h, 0.1 μg/ml CDDP): 2.779 | SRB Average ([2]; MCF-7 Run 1, 72 h, 1 μg/ml CDDP): 1.762 | SRB Average ([2]; MCF-7 Run 1, 72 h, 10 μg/ml CDDP): 1.702 | SRB Average ([2]; MCF-7 Run 1, 72 h, 100 μg/ml CDDP): 1.024
